This note sets out measurements from paper PMC9063842, “A GH115 α-glucuronidase structure reveals dimerization-mediated substrate binding and a proton wire potentially important for catalysis” (Acta Crystallographica. Section D, Structural Biology, 2022).

Data set [1] deals with T1, wtsAgu115A (uncultured bacterium, UniProt A0ACD6BAS3).
T1 construct: mature protein without 19-residue signal peptide, pET-28a (NcoI/XhoI), His-tag purified, E. coli BL21(DE3) pLysS; homodimer
Briefly: X-ray crystal structure, crystal soaking. It counts as binding. To be noted: 2.65 A; 0.2 M CaCl2, HEPES pH 7.5, 28% PEG 400; five of six xylose units visible; active site at dimer interface; Ca2+ near site; wild type inferred (Asp303 side chain H-bonds the ligand).

Data set [2] concerns the molecule itself. Briefly: SEC; analytical gel filtration, HiLoad 16/60 Superdex G200, 10 mM sodium acetate, 150 mM NaCl pH 6, 0.5 ml/min; standards aldolase (158 kDa), conalbumin (75 kDa), ovalbumin (44 kDa).

On to `OC1OC[C@@H](O[C@@H]2OC[C@@H](O[C@@H]3OC[C@@H](O[C@@H]4OC[C@@H](O[C@@H]5OC[C@@H](O[C@@H]6OC[C@@H](O)[C@H](O)[C@H]6O)[C@H](O)[C@H]5O)[C@H](O)[C@H]4O)[C@H](O)[C@H]3O)[C@H](O)[C@H]2O)[C@H](O)[C@H]1O` (some centres unmarked) [xylohexaose], for which the “X-ray crystal structure, crystal soaking” value in data set [1] was “five β-1,4-linked D-xylopyranose moieties was observed in the crystal structure of wtsAgu115A soaked with xylohexaose”.

B1: wtsAgu115A (enzyme)
chain: AGDNKGITYEELNPERFTLLEKGTPTNILIDENEDQGVMIAATNLSEDFGRVSGTNAPLIFLPDNERLIIVGTLESRYIKELTENRKIKGDELKGKNEKYLMTVVDNPLPGVKEALIIAGSDKRGAIYGIYELSEQIGVSPWYDWADVPVKPQQNLSIERGSYTADEPAVTYRGIFLNDEAPALTSWVENTYGTKYGDHRFYSRVFELILRLRGNFLWPAMWDWSFYGDDPLNSKTADTMGIIMGTSHHEPMARNHQEWARNRDKYGVWDYTSNQEVIDQFFREGIERVKDTDDLITIGMRGDGDTPMPMGVKEGEDHLPSDEDNMRLLERIIKNQREIIGDVTGESPEKTPQVWAIYKEVQRYFDLGLRPPEDVIILLSDDNWGNVRRLPTEEERDHPGGWGMYYHFDYVGAPRSSKWLNISPIQNIWEQMQLTYDYGVDELWVANVGDLKPMEYPITLFLDMAWDPTRFNAENLLDHTRSFAAQQFGEDQADEAARIINLYSKYNGRVTPEMLDRNTYNLESGEWKKVSDEYIKLEAEALRQYLTLEPEQRDAYKQLILYPVQAMANLYEMYYSQAMNHKLYRENNPMANYWADRVEETFNRDAELSHDYNKVMANGKWDGMMTQKKIGYRSWNDNFPADTLPQIFRIENPEEATGGYVFTARDGVVVIEAEHYFEAKDAEEAKWTVIPYMGRTLSSIALMPYTKEVEGASLSYRMQIPDEVSEVKVHVVVKSTLPFHDPKGHEYRVGFEGGSKEIVNFNWNLNEEPENIYSVFYPTVASRVVKKDVTLDLHDTDDGFYTLTLEPLDPGIVFQKIVVDFGGYEESRLFMEESPNKRIEIE
Turning to B1, the “stoichiometry N” value in data set [2] amounted to 2.
